Where “and” joins values, the source holds several entries; their conditions need not be identical. Equal entries are not always repeated.
Assay: mn = molality of the nth substance listed, in mol/kg
Settings: 101 kPa, Liquid; for speed of sound: Frequency=4 MHz

O=[N+]([O-])[O-].[K+] [potassium nitrate] + O
m1 = 2.19
Settings	mass density [kg/m3]	speed of sound
298.15 K	1115	1558.8 m/s
303.15 K	1112.5	1566.8 m/s
308.15 K	1109.8	1572.8 m/s and 1572.6 m/s
313.15 K	1107	1577.6 m/s
318.15 K	1104	1582 m/s
323.15 K	1100.9	1586.4 m/s

[Cl-].[K+] [potassium chloride] + O
m1 = 2.13
Settings	mass density [kg/m3]	speed of sound [m/s]
298.15 K	1087.7	1592.8
303.15 K	1085.7	1600.4
308.15 K	1083.6	1608
313.15 K	1081.3	1614
318.15 K	1078.8	1617.2
323.15 K	1076.1	1622

Source: the NIST ThermoML archive (doi:10.1021/je900199j)
